Results from PubChem BioAssay (NCI).
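Where inhibition never reached the appropriate level, the endpoint shown equals the highest concentration tested. Otherwise, values were interpolated linearly from a five-concentration, 48-hour dose response in 96-well plates. Abbreviation: GI50, concentration required for 50% inhibition of growth. TGI: concentration producing complete growth inhibition.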

Key:
Test in all cases: growth of human tumour cells (NCI), 48 h
786-0 renal = tested on: 786-0 renal
A498 renal = tested on: A498 renal
A549 NSCLC = tested on: A549 NSCLC
BT-549 breast = tested on: BT-549 breast
CAKI-1 renal = tested on: CAKI-1 renal
CCRF-CEM leukemia = tested on: CCRF-CEM leukemia
COLO 205 colon = tested on: COLO 205 colon
DU-145 prostate = tested on: DU-145 prostate
EKVX NSCLC = tested on: EKVX NSCLC
HCC-2998 colon = tested on: HCC-2998 colon
HCT-116 colon = tested on: HCT-116 colon
HCT-15 colon = tested on: HCT-15 colon
HOP-62 NSCLC = tested on: HOP-62 NSCLC
HOP-92 NSCLC = tested on: HOP-92 NSCLC
HS 578T breast = tested on: HS 578T breast
HT29 colon = tested on: HT29 colon
IGROV1 ovarian = tested on: IGROV1 ovarian
K-562 leukemia = tested on: K-562 leukemia
KM12 colon = tested on: KM12 colon
LOX IMVI melanoma = tested on: LOX IMVI melanoma
M14 melanoma = tested on: M14 melanoma
MALME-3M melanoma = tested on: MALME-3M melanoma
MCF7 breast = tested on: MCF7 breast
MDA-MB-231 breast = tested on: MDA-MB-231 breast
MDA-MB-435 = tested on: MDA-MB-435
MOLT-4 leukemia = tested on: MOLT-4 leukemia
NCI-H226 lung = tested on: NCI-H226 lung
NCI-H23 lung = tested on: NCI-H23 lung
NCI-H460 lung = tested on: NCI-H460 lung
NCI-H522 lung = tested on: NCI-H522 lung
NCI/ADR-RES ovarian = tested on: NCI/ADR-RES ovarian
OVCAR-3 ovarian = tested on: OVCAR-3 ovarian
OVCAR-4 ovarian = tested on: OVCAR-4 ovarian
OVCAR-5 ovarian = tested on: OVCAR-5 ovarian
OVCAR-8 ovarian = tested on: OVCAR-8 ovarian
PC-3 prostate = tested on: PC-3 prostate
RPMI-8226 leukemia = tested on: RPMI-8226 leukemia
RXF 393 renal = tested on: RXF 393 renal
SF-268 CNS = tested on: SF-268 CNS
SF-295 CNS = tested on: SF-295 CNS
SF-539 CNS = tested on: SF-539 CNS
SK-MEL-2 melanoma = tested on: SK-MEL-2 melanoma
SK-MEL-28 melanoma = tested on: SK-MEL-28 melanoma
SK-MEL-5 melanoma = tested on: SK-MEL-5 melanoma
SK-OV-3 ovarian = tested on: SK-OV-3 ovarian
SN12C renal = tested on: SN12C renal
SNB-19 CNS = tested on: SNB-19 CNS
SNB-75 CNS = tested on: SNB-75 CNS
SW-620 colon = tested on: SW-620 colon
T-47D breast = tested on: T-47D breast
TK-10 renal = tested on: TK-10 renal
U251 CNS = tested on: U251 CNS
UACC-257 melanoma = tested on: UACC-257 melanoma
UACC-62 melanoma = tested on: UACC-62 melanoma
UO-31 renal = tested on: UO-31 renal

In the case of `CO/N=C(\COc1ccc2c(c1)oc(=O)c1cc(OC)ccc12)c1cccc(OC)c1`, the GI50 (786-0 renal) is reported as > 100 µM, the TGI (786-0 renal) is reported as > 100 µM and the GI50 (A498 renal) is reported as 80.2 µM. The TGI (A498 renal) was > 100 µM, the GI50 (A549 NSCLC) was > 100 µM and the TGI (A549 NSCLC) was > 100 µM. For the same molecule, the GI50 (BT-549 breast) was > 100 µM, the TGI (BT-549 breast) was > 100 µM and the GI50 (CAKI-1 renal) was > 100 µM. The TGI (CAKI-1 renal) was > 100 µM, the GI50 (CCRF-CEM leukemia) was > 100 µM and the TGI (CCRF-CEM leukemia) was > 100 µM. For the same molecule, the GI50 (COLO 205 colon) was > 100 µM, the TGI (COLO 205 colon) was > 100 µM and the GI50 (DU-145 prostate) was > 100 µM. The TGI (DU-145 prostate) was > 100 µM, the GI50 (EKVX NSCLC) was > 100 µM and the TGI (EKVX NSCLC) was > 100 µM. For the same molecule, the GI50 (HCC-2998 colon) was > 100 µM, the TGI (HCC-2998 colon) was > 100 µM and the GI50 (HCT-116 colon) was > 100 µM. For the same molecule, the TGI (HCT-116 colon) was > 100 µM, the GI50 (HCT-15 colon) was > 100 µM and the TGI (HCT-15 colon) was > 100 µM. For the same molecule, the GI50 (HOP-62 NSCLC) was > 100 µM, the TGI (HOP-62 NSCLC) was > 100 µM and the GI50 (HOP-92 NSCLC) was > 100 µM. The TGI (HOP-92 NSCLC) was > 100 µM, the GI50 (HS 578T breast) was > 100 µM and the TGI (HS 578T breast) was > 100 µM. For the same molecule, the GI50 (HT29 colon) was > 100 µM, the TGI (HT29 colon) was > 100 µM and the GI50 (IGROV1 ovarian) was > 100 µM. The TGI (IGROV1 ovarian) was > 100 µM, the GI50 (K-562 leukemia) was > 100 µM and the TGI (K-562 leukemia) was > 100 µM. For the same molecule, the GI50 (KM12 colon) was > 100 µM, the TGI (KM12 colon) was > 100 µM and the GI50 (LOX IMVI melanoma) was > 100 µM. For the same molecule, the TGI (LOX IMVI melanoma) was > 100 µM, the GI50 (M14 melanoma) was > 100 µM and the TGI (M14 melanoma) was > 100 µM. The GI50 (MALME-3M melanoma) was > 100 µM, the TGI (MALME-3M melanoma) was > 100 µM and the GI50 (MCF7 breast) was > 100 µM. For the same molecule, the TGI (MCF7 breast) was > 100 µM, the GI50 (MDA-MB-231 breast) was > 100 µM and the TGI (MDA-MB-231 breast) was > 100 µM. The GI50 (MDA-MB-435) was > 100 µM, the TGI (MDA-MB-435) was > 100 µM and the GI50 (MOLT-4 leukemia) was > 100 µM. For the same molecule, the TGI (MOLT-4 leukemia) was > 100 µM, the GI50 (NCI-H226 lung) was > 100 µM and the TGI (NCI-H226 lung) was > 100 µM. The GI50 (NCI-H23 lung) was > 100 µM, the TGI (NCI-H23 lung) was > 100 µM and the GI50 (NCI-H460 lung) was > 100 µM. The TGI (NCI-H460 lung) was > 100 µM, the GI50 (NCI-H522 lung) was > 100 µM and the TGI (NCI-H522 lung) was > 100 µM. The GI50 (NCI/ADR-RES ovarian) was > 100 µM, the TGI (NCI/ADR-RES ovarian) was > 100 µM and the GI50 (OVCAR-3 ovarian) was > 100 µM. The TGI (OVCAR-3 ovarian) was > 100 µM, the GI50 (OVCAR-4 ovarian) was > 100 µM and the TGI (OVCAR-4 ovarian) was > 100 µM. The GI50 (OVCAR-5 ovarian) was > 100 µM, the TGI (OVCAR-5 ovarian) was > 100 µM and the GI50 (OVCAR-8 ovarian) was > 100 µM. The TGI (OVCAR-8 ovarian) was > 100 µM, the GI50 (PC-3 prostate) was > 100 µM and the TGI (PC-3 prostate) was > 100 µM. For the same molecule, the GI50 (RPMI-8226 leukemia) was > 100 µM, the TGI (RPMI-8226 leukemia) was > 100 µM and the GI50 (RXF 393 renal) was > 100 µM. For the same molecule, the TGI (RXF 393 renal) was > 100 µM, the GI50 (SF-268 CNS) was > 100 µM and the TGI (SF-268 CNS) was > 100 µM. The GI50 (SF-295 CNS) was > 100 µM, the TGI (SF-295 CNS) was > 100 µM and the GI50 (SF-539 CNS) was > 100 µM. The TGI (SF-539 CNS) was > 100 µM, the GI50 (SK-MEL-2 melanoma) was > 100 µM and the TGI (SK-MEL-2 melanoma) was > 100 µM. For the same molecule, the GI50 (SK-MEL-28 melanoma) was > 100 µM, the TGI (SK-MEL-28 melanoma) was > 100 µM and the GI50 (SK-MEL-5 melanoma) was > 100 µM. For the same molecule, the TGI (SK-MEL-5 melanoma) was > 100 µM, the GI50 (SK-OV-3 ovarian) was > 100 µM and the TGI (SK-OV-3 ovarian) was > 100 µM. For the same molecule, the GI50 (SN12C renal) was > 100 µM, the TGI (SN12C renal) was > 100 µM and the GI50 (SNB-19 CNS) was > 100 µM. For the same molecule, the TGI (SNB-19 CNS) was > 100 µM, the GI50 (SNB-75 CNS) was > 100 µM and the TGI (SNB-75 CNS) was > 100 µM. For the same molecule, the GI50 (SW-620 colon) was > 100 µM, the TGI (SW-620 colon) was > 100 µM and the GI50 (T-47D breast) was > 100 µM. The TGI (T-47D breast) was > 100 µM, the GI50 (TK-10 renal) was > 100 µM and the TGI (TK-10 renal) was > 100 µM. The GI50 (U251 CNS) was > 100 µM, the TGI (U251 CNS) was > 100 µM and the GI50 (UACC-257 melanoma) was > 100 µM. For the same molecule, the TGI (UACC-257 melanoma) was > 100 µM, the GI50 (UACC-62 melanoma) was > 100 µM and the TGI (UACC-62 melanoma) was > 100 µM. For the same molecule, the GI50 (UO-31 renal) was > 100 µM and the TGI (UO-31 renal) was > 100 µM.
